Reference: patent US20030232743A1, “Compositions and methods for darkening the skin” (priority 2002, published 2003)

System: Type IV pigmented epidermal equivalents (SkinEthic reconstructed human epidermis; normal human keratinocytes and melanocytes)
Experiment: Darkening in pigmented epidermal equivalents (DOPA and Fontana-Mason staining)
Assay type: cell-based
Design: key to Score DOPA staining (tyrosinase activity): 0: No change in DOPA staining and in melanin deposition; 1: Minimal increase in DOPA staining and/ or in pigment deposition; 2: Increased DOPA staining and/ or in pigment deposition; 3: Strong increase in DOPA staining and/ or in pigment deposition
Details: for Score F & M staining (Pigment deposition) / Score DOPA staining (tyrosinase activity): peptides at 100 μM in PBS, treated three or five days, harvested fourth or sixth day; for Score F & M staining (Pigment deposition): sectioned equivalents F&M stained; for Score DOPA staining (tyrosinase activity): whole equivalents DOPA stained; for Overall change of pigmentation (darkening), in words: peptides at 100 μM, compared with UVB irradiation (0.10 J/cm^2)
Method: Peptide 1 and Peptide 2 were tested for their ability to induce darkening in pigmented epidermal equivalents. The pigmented epidermal equivalents contain human normal melanocytes, together with normal, human-derived epidermal keratinocytes, which have been cultured to form a multi-layered, highly differentiated model of the human epidermis. Type IV pigmented epidermal equivalents (consists of normal human keratinocytes pooled from variety of phototype skins and normal human melanocytes derived from type IV phototype skin) were treated with test compounds for three or five days and samples were harvested on the fourth or sixth day of the study. The harvested equivalents were stained with DOPA (a substrate for tyrosinase) or with Fontana-Mason (F&M) (Sheenan D C, Hrapckak B B, eds: Theory and practice of Histo-Thchnology (St Louis: C V Mosby, 1980) pp 223-277). F&M staining identifies silver nitrate reducing activity, which, in skin, identifies melanin.
The Epidermal equivalents used were SkinEthic® reconstructed human epidermis from SkinEthic™ Laboratory (Nice, France). UV irradiation was performed with a UVB FS light source in an exposure chamber, with plate covers removed and Phosphate—buffered saline (PBS, from Gibco-BRL, Gaithersburg, Md.) present in the lower chamber. UVB intensity was measured with a UVX radiometer (UVP Inc., San Gabriel, Calif.). Equivalents were treated with 0.1-0.12 J/cm2. […] The peptides were assayed at 100 μM, and were dissolved in PBS.
On the fourth or sixth day of the study, the equivalents were fixed, sectioned and F&M stained, or they were DOPA stained as whole without sectioning, using standard techniques. Images of stained whole or sectioned equivalents were obtained and analyzed with Image Pro Plus 3.0 software (Media Cybernetics, Silver Spring, Md.). Parameters measured were surface area of stained material within melanocyte and keratinocyte and the total surface area of the cells in culture. In all experiments there was no difference between PBS-treated cells and untreated controls. At least three sections per equivalent, three equivalents per experiment were processed. DOPA-stained epidermal equivalents were evaluated for the change in tyrosinase activity. F&M-stained histological sections were evaluated for the change in pigment deposition. Due to the low content of melanin within the equivalent, it was not possible to quantify the level of pigment within melanocytes in F&M stained sections by image analysis. Therefore, we evaluate the pigment change using the scale defined in Table 1.

`CC(C)C[C@H](NC(=O)[C@H](CCCN/C(N)=N/[N+](=O)[O-])NCc1ccc(OC(F)(F)F)cc1)C(N)=O` [Peptide 2] was tested, and the “Score F & M staining (Pigment deposition)” value was 1-2, the “Score DOPA staining (tyrosinase activity)” value was 1-2 and the “Overall change of pigmentation (darkening), in words” value was “able to enhance pigment production”.

In the case of `COc1ccc(CN[C@@H](CCCN/C(N)=N/[N+](=O)[O-])C(=O)N[C@@H](CC(C)C)C(N)=O)cc1` [Peptide 1], the “Score F & M staining (Pigment deposition)” value is reported as 1-2, the “Score DOPA staining (tyrosinase activity)” value is reported as 3 and the “Overall change of pigmentation (darkening), in words” value is reported as “darkening levels similar to those produced by UVB irradiation”.
